What was measured:
PfHDAC1 = target: T1, PfHDAC1 (Plasmodium falciparum, UniProt Q7K6A1); test: In vitro PfHDAC1 enzymatic assay; assay type: biochemical; conditions: for inhibition at 1 µM / inhibition at 10 µM: recombinant PfHDAC1
T1 construct: purchased BPS Bioscience (San Diego, CA)
T1 sequence (Q7K6A1 1-449): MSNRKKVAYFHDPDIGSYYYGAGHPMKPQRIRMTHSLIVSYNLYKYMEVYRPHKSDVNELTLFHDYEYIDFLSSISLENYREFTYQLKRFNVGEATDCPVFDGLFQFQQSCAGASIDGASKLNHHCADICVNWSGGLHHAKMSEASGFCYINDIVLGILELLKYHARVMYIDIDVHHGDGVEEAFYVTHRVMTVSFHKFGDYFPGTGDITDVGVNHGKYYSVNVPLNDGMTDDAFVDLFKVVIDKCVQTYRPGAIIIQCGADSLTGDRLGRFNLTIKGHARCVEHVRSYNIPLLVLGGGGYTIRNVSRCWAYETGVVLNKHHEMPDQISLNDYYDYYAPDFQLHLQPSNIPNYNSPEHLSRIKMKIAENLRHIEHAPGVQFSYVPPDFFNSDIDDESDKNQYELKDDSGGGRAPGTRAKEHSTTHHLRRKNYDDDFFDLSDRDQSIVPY
Description: In vitro PfHDAC1 enzymatic assay. PfHDAC inhibition assays were performed by BPS Bioscience (San Diego, CA). […] Then, each DMSO solution was directly diluted 10 × fold into the HDAC assay buffer for an intermediate dilution of 10% DMSO in HDAC assay buffer. Then, 5 µL of the intermediate dilution was added to a 50 µL reaction so that the final concentration of DMSO is 1% in all the reactions. […] Fluorescence intensity was measured at an excitation of 360 nm and an emission of 460 nm using a Tecan Infinite M1000 microplate reader. […] The fluorescent intensity data were analyzed using GraphPad Prism (v9.5.2). In the absence of the compound, the fluorescent intensity (Ft) in each data set was defined as 100% activity. In the absence of HDAC, the fluorescent intensity (Fb) in each data set was defined as 0% activity. The percent activity in the presence of each compound was calculated according to the following equation: % activity = (F-Fb)/(Ft-Fb), where “F” is the fluorescent intensity in the presence of the compound.

P. falciparum 3D7 = test: Antiplasmodial SYBR Green I proliferation assay, P. falciparum 3D7; assay type: cell-based, Plasmodium falciparum; conditions: Plasmodium falciparum, 3D7, 96 h, 96 h; values in brackets 95% confidence intervals; read-out: IC50 Pf3D7
Method in brief: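 SYBR Green I DNA-content proliferation assay on P. falciparum 3D7 and Dd2 in human O+ erythrocytes. Fluorescence after 1 h lysis with 0.02% SYBR Green I, scaled 0–100% against untreated parasites; curves by non-linear regression on means of three independent triplicate experiments.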

CYP450 2C9 = target: T2, CYP450 2C9 (Homo sapiens, UniProt P11712); test: CYP450 inhibition in human liver microsomes, 2C9; assay type: in vitro ADME; conditions: 10 µM
T2 construct: 10 μM compound was incubated with human liver microsomes and selective marker substrates; from tissue; host or cells: human liver microsomes
T2 sequence (P11712 whole entry): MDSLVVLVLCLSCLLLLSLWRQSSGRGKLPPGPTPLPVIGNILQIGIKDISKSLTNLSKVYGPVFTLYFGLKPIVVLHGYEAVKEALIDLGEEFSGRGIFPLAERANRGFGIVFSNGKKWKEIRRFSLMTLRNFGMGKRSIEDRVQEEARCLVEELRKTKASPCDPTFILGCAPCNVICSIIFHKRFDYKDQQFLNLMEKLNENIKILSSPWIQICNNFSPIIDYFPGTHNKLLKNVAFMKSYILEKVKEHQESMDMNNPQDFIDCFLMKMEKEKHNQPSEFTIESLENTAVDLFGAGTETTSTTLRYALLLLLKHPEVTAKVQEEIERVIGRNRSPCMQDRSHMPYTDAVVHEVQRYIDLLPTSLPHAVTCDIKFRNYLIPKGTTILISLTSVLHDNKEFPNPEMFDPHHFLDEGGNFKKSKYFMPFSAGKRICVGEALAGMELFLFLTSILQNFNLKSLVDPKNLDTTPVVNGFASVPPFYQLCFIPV

human HDAC1 = target: T3, human HDAC1 (Homo sapiens, UniProt Q13547); test: In vitro HDAC enzymatic assay, HDAC1; assay type: biochemical; conditions: mean ± SD
T3 construct: purchased ENZO Life Sciences AG (Lausen, CH)
T3 sequence (Q13547 whole entry): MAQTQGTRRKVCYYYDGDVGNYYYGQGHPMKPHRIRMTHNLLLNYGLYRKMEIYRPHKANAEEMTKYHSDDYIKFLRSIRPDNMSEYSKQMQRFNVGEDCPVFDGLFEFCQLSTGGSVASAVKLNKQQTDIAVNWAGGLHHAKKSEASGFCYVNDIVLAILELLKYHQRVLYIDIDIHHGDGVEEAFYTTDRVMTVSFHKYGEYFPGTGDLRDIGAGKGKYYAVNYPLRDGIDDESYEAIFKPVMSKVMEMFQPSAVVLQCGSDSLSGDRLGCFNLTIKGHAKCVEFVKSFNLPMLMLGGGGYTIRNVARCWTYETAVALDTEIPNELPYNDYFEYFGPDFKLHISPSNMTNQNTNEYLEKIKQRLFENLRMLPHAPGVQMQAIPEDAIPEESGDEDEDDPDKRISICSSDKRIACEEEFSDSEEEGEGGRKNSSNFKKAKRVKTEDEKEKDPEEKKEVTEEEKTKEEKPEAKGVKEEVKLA
Description: In vitro HDAC enzymatic assays. Recombinant human HDAC1 and HDAC6 were purchased from ENZO Life Sciences AG (Lausen, CH) whereas HDAC8 was produced as described before. In vitro testing of the inhibitors in an enzymatic assay was carried out as described in previous publications[32],[33]. For HDAC1 a fluorogenic peptide derived from p53 (Ac-RHKK(Acetyl)-AMC) was used. For HDAC6, the substrate (Abz-SRGGK(thio-TFA)FFRR-NH2) was used as described before.

[1] = Stability in human hepatic microsomes; assay type: in vitro ADME; conditions: for half-life at 1 µM: 1 mg/mL hepatic microsomes, 1 µM compound, read-out: Half-life t1/2 Human; for microsomal CLint at 1 µM: read-out: Intrinsic clearance Clint Human
Description: DMPK evaluation. […].

CYP450 2D6 = target: T4, CYP450 2D6 (Homo sapiens, UniProt P10635); test: CYP450 inhibition in human liver microsomes, 2D6; assay type: in vitro ADME; conditions: 10 µM
T4 construct: 10 μM compound was incubated with human liver microsomes and selective marker substrates; from tissue; host or cells: human liver microsomes
T4 sequence (P10635 whole entry): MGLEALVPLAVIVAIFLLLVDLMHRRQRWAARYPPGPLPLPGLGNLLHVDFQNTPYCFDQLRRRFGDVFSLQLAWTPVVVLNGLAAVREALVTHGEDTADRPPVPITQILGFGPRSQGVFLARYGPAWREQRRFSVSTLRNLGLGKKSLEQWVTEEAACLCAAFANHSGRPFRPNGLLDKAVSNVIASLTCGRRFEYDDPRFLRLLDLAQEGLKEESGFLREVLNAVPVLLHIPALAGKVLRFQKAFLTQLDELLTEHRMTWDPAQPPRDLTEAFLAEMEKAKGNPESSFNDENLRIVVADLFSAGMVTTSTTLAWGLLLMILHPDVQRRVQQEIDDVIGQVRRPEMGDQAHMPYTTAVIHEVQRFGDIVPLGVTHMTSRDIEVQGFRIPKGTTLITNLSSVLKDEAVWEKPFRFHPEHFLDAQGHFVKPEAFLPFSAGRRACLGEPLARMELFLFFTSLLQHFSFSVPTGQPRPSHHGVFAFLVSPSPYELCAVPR

CYP1A2 = target: T5, CYP1A2 (Homo sapiens, UniProt P05177); test: CYP450 inhibition in human liver microsomes, 1A2; assay type: in vitro ADME; conditions: 10 µM
T5 construct: 10 μM compound was incubated with human liver microsomes and selective marker substrates; from tissue; host or cells: human liver microsomes
T5 sequence (P05177 1-516): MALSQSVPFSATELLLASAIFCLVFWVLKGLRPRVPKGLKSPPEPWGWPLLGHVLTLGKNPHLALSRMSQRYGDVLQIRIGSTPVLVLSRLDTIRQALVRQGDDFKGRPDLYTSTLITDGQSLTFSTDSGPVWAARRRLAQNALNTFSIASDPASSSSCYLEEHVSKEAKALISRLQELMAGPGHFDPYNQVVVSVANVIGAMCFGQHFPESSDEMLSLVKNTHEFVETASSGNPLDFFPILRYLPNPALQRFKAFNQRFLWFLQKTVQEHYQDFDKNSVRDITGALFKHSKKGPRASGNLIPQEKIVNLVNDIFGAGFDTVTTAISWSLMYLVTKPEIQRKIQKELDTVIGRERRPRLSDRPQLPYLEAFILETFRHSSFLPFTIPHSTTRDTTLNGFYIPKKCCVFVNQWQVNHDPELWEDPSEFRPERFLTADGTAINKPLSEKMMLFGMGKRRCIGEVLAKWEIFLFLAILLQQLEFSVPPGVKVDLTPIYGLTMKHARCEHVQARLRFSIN

SMILES	inhibition at 1 µM (PfHDAC1) [%]	remaining activity at 1 µM (PfHDAC1; 1 µM, read-out: PfHDAC1 residual activity) [%]	inhibition at 10 µM (PfHDAC1) [%]	IC50 (P. falciparum 3D7) [µM]	CYP450% inhibition @ 10 µM 2C9 (CYP450 2C9)	IC50 (human HDAC1) [µM]	half-life at 1 µM [1] [h]	microsomal CLint at 1 µM [1] [µL/min/mg]	CYP450% inhibition @ 10 µM 2D6 (CYP450 2D6)	melting point	CYP450% inhibition @ 10 µM 1A2 (CYP1A2)
COc1ccc(NC(=O)Nc2ccc(/C=C/C(=O)NO)cc2)cc1 [Compound 6c, (E)-N-hydroxi-3-(4-(3-(4-methoxyphenyl)ureido)phenyl)acrylamide]	69	26	82	1.03	18%	1.58 ± 0.0622	0.66	17	*^b (Inhibition < 10%)	210 °C (dec.)	32%
COc1ccc(NC(=O)Nc2ccc(CCC(=O)NO)cc2)cc1 [Compound 7c, N-hydroxy-3-(4-(3-(4-methoxyphenyl)ureido)phenyl)propanamide]	~50	–	88	5.82	* (Inhibition < 10%)	3.56 ± 0.185	> 2	< 6	* (Inhibition < 10%)	202 to 204 °C	22%
O=C(Nc1ccccc1)Nc1ccc(C(=O)NO)cc1 [Compound 8a, N-hydroxy-4-(3-phenylureido)bezamide]	–	–	–	0.56	* (Inhibition < 10%)	5.33 ± 0.366	> 2	< 6	* (Inhibition < 10%)	304 °C (dec.)	48%
O=C(Nc1ccc(Cl)cc1)Nc1ccc(C(=O)NO)cc1 [Compound 8b, 4-(3-(4-chlorophenyl)ureido)-N-hydroxybenzamide]	–	–	–	1.31	* (Inhibition < 10%)	5.24 ± 0.476	1.1	10	* (Inhibition < 10%)	357 °C (dec.)	42%
COc1ccc(NC(=O)Nc2ccc(C(=O)NO)cc2)cc1 [Compound 8c, N-hydroxy-4-(3–4(-methoxyphenyl)ureido)benzamide]	~50	–	–	0.74	* (Inhibition < 10%)	6.18 ± 0.231	1.65	7	* (Inhibition < 10%)	–	* (Inhibition < 10%)
O=C(Nc1ccc(C(=O)NO)cc1)Nc1ccc([N+](=O)[O-])cc1 [Compound 8d, N-hydroxy-4-(3-(4-nitrophenyl)ureido)benzamide]	–	–	–	0.55	* (Inhibition < 10%)	3.74 ± 0.232	> 2	< 6	* (Inhibition < 10%)	312 °C (dec.)	* (Inhibition < 10%)
